Experimental findings from patent US20090156577A1, “7-AMINO ALKYLIDENYL-HETEROCYCLIC QUINOLONES AND NAPHTHYRIDONES” (priority 2004, published 2009) are described below.

Each structure is given as a SMILES string. In brackets after ≈: the same amount, converted by molar mass. Like-named read-outs stand apart in the source and are kept apart here.

The assay deals with pathogenic bacteria. The assay is described as follows: MIC by microdilution broth method (NCCLS M7-A4), in vitro antibacterial activity. In kind it is cell-based. The essentials:
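MIC read after 35 °C incubation for 16–20 h relative to drug-free growth wells. Cation-adjusted Mueller-Hinton broth with two-fold compound dilutions, organisms at roughly 5×10^4 CFU/well final. Method follows NCCLS document M7-A4.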
Background: In broth dilution the organism is exposed to a series of concentrations in liquid medium.

Setting [1] is: Staphylococcus aureus, Organism A: Staphylococcus aureus OC4172, read-out: MIC.
Where [2] appears, read: Streptococcus pneumoniae, ATCC49619, Organism E: Streptococcus pneumoniae ATCC 49619, read-out: MIC.
Setting [3] is: Streptococcus pneumoniae, Organism C: fluoroquinolone-resistant clinical isolate of Streptococcus pneumoniae (QRDR amino acid substitutions).
Where [4] appears, read: Streptococcus pneumoniae, Organism D: fluoroquinolone-resistant clinical isolate of Streptococcus pneumoniae (QRDR amino acid substitutions).
Where [5] appears, read: Streptococcus pneumoniae, Organism B: fluoroquinolone-resistant clinical isolate of Streptococcus pneumoniae (QRDR amino acid substitutions).

Consider `NC/C=C1\CCCN(c2cc3c(cc2F)c(=O)c(C(=O)O)cn3C2CC2)C1` [Compound 384, (E)-7-[3-(2-Amino-ethylidene)-piperidin-1-yl]-1-cyclopropyl-6-fluoro-4-oxo-1,4-dihydro-quinoline-3-carboxylic acid], for which the MIC (commonly the least concentration at which growth counts as inhibited) by setting is: under setting [1], 1 µg/mL (≈ 2.69 µM); under setting [2], 8 µg/mL (≈ 21.5 µM); under setting [3], above 16 µg/mL; under setting [4], above 16 µg/mL.
As for `C/C(CN)=C1/CCCN(c2cc3c(cc2F)c(=O)c(C(=O)O)cn3C2CC2)C1` [Compound 385, (E)-7-[3-(2-Amino-1-methyl-ethylidene)-piperidin-1-yl]-1-cyclopropyl-6-fluoro-4-oxo-1,4-dihydro-quinoline-3-carboxylic acid], the MIC is 1 µg/mL (≈ 2.59 µM) under setting [1]; 8 µg/mL (≈ 20.8 µM) under setting [2]; above 16 µg/mL under setting [5]; above 16 µg/mL under setting [3]; above 16 µg/mL under setting [4].
As to `NC/C(Cl)=C1\CCCN(c2cc3c(cc2F)c(=O)c(C(=O)O)cn3C2CC2)CC1` [Compound 386, (Z)-7-[4-(2-Amino-1-chloro-ethylidene)-azepan-1-yl]-1-cyclopropyl-6-fluoro-4-oxo-1,4-dihydro-quinoline-3-carboxylic acid], the MIC reads like this: under setting [1], 0.25 µg/mL (≈ 0.595 µM); under setting [2], 2 µg/mL (≈ 4.76 µM); under setting [3], 8 µg/mL (≈ 19.1 µM); under setting [4], 16 µg/mL (≈ 38.1 µM).
With `NC/C(Cl)=C1/CCCN(c2cc3c(cc2F)c(=O)c(C(=O)O)cn3C2CC2)CC1` [Compound 387, (E)-7-[4-(2-Amino-1-chloro-ethylidene)-azepan-1-yl]-1-cyclopropyl-6-fluoro-4-oxo-1,4-dihydro-quinoline-3-carboxylic acid], the MIC reads like this: under setting [1], 0.5 µg/mL (≈ 1.19 µM); under setting [2], 2 µg/mL (≈ 4.76 µM); under setting [5], above 16 µg/mL; under setting [3], 16 µg/mL (≈ 38.1 µM); under setting [4], 16 µg/mL (≈ 38.1 µM).
Regarding `COc1c(N2CCC/C(=C(/F)CN)C2)c(F)cc2c(=O)c(C(=O)O)cn(C3CC3)c12` [Compound 388, (Z)-7-[3-(2-Amino-1-fluoro-ethylidene)-piperidin-1-yl]-1-cyclopropyl-6-fluoro-8-methoxy-4-oxo-1,4-dihydro-quinoline-3-carboxylic acid], the minimal inhibitory concentration (MIC) by setting is: under setting [1], at most 0.25 µg/mL; under setting [2], 0.5 µg/mL (≈ 1.19 µM); under setting [5], 2 µg/mL (≈ 4.77 µM); under setting [3], 8 µg/mL (≈ 19.1 µM); under setting [4], 2 µg/mL (≈ 4.77 µM).
As to `COc1c(N2CCC/C(=C/CN)C2)c(F)cc2c(=O)c(C(=O)O)cn(C3CC3)c12` [Compound 389, (Z)-7-[3-(2-Amino-ethylidene)-piperidin-1-yl]-1-cyclopropyl--6-fluoro-8-methoxy-4-oxo-1,4-dihydro-quinoline-3-carboxylic acid], the minimal inhibitory concentration (MIC) by setting is: under setting [1], at most 0.015 µg/mL; under setting [2], 0.06 µg/mL (≈ 0.149 µM); under setting [5], 0.5 µg/mL (≈ 1.25 µM); under setting [3], 1 µg/mL (≈ 2.49 µM); under setting [4], 0.5 µg/mL (≈ 1.25 µM).
Turning to `COc1c(N2CCC/C(=C\CN)C2)c(F)cc2c(=O)c(C(=O)O)cn(C3CC3)c12` [Compound 390, (E)-7-[3-(2-Amino-ethylidene)-piperidin-1-yl]-1-cyclopropyl-6-fluoro-8-methoxy-4-oxo-1,4-dihydro-quinoline-3-carboxylic acid], the minimum inhibitory concentration (MIC) turned out to be 0.06 µg/mL (≈ 0.149 µM) under setting [1], 0.5 µg/mL (≈ 1.25 µM) under setting [2], 2 µg/mL (≈ 4.98 µM) under setting [3] and 4 µg/mL (≈ 9.96 µM) under setting [4].
Consider `COc1c(N2CC(=C(C)CN)C2)c(F)cc2c(=O)c(C(=O)O)cn(C3CC3)c12` [Compound 391, 7-[3-(2-Amino-1-methyl-ethylidene)-azetidin-1-yl]-1-cyclopropyl-6-fluoro-8-methoxy-4-oxo-1,4-dihydro-quinoline-3-carboxylic acid], for which the MIC is 0.06 µg/mL (≈ 0.155 µM) under setting [1]; 2 µg/mL (≈ 5.16 µM) under setting [2]; 8 µg/mL (≈ 20.6 µM) under setting [5]; above 16 µg/mL under setting [3]; 8 µg/mL (≈ 20.6 µM) under setting [4].
